Key:
[1] = test system: A549 non-small cell lung cancer cell line; assay: WST colorimetric assay, viability in A549 cells; assay type: cell-based; conditions: 24, 48 and 72 hours
Protocol: Specifically, a total of 10^5 cells per well were seeded in a 6-well plate before treatment. After 24 hours, the cells were treated with SH003 (100, 300, and 500 μg/mL), DTX (1, 10, 100, and 1000 nM), or a combination thereof for 24, 48, and 72 hours. […] After treatment, the cells were incubated with WST for 1 hour, and then the absorbance was measured at 450 nm using an ELISA reader (Molecular Devices, Palo Alto, CA, USA).

A549 cells = assay: Annexin V/7-AAD apoptosis in A549 cells; assay type: cell-based; conditions: 24 hours
Protocol: (§1) In order to investigate the effect of increasing apoptosis by combined administration of the mixed extract of the present invention and docetaxel, Annexin V/7-AAD double staining was used for analysis.
(§2) Specifically, H460 and A549 cells were stained with Annexin V and then stained with 7-AAD in the dark for 15 minutes at room temperature, and then the stained cells were detected by FACSCalibur (BD Biosciences, San Jose, CA, USA), and the apoptotic cells were analyzed using CellQuest Pro version 5.2 (BD Biosciences, San Jose, CA, USA) software. The results are illustrated in FIG. 3.

BT-20 tumor xenograft = BT-20 tumor xenograft mouse model; assay type: in vivo, BALB/c nude mice; conditions: BT-20 xenograft mice
Protocol: The effect of the combined administration of the mixed extract of the present invention and docetaxel was investigated in an animal model. All animal studies were approved by Kyung Hee University-Institutional Animal Care & Use Committee (KHU-IACUC). Five-week-old female BALB/c nude mice were purchased from Nara Biotech (Seoul, Republic of Korea). The mice were allowed free access to food and water and were housed in appropriate isolation cages at room temperature (22-25° C.) under a 12-h light/12-h dark cycle in the absence of pathogens. In order to establish a tumor xenograft mouse model, BT-20 cell suspension (1×10^7 cells) in 100 μL PBS was subcutaneously inoculated into the right flank of the mice. The mice were divided into four groups: control group (n=3), SH003 (n=4), DTX (n=4), and SH003+DTX (n=5). When the tumor volume reached 100 mm^3, the drug was injected. DTX was administered intravenously via the tail vein once a week at 15.277 mg/kg, while DMSO was administered to the control or SH003 single-administration group. SH003 was administered orally at 557.569 mg/kg three times a week, while saline was administered to the control or DTX single-administration group. The body weight was measured three times a week, and tumor volume was analyzed daily for 17 days.
Subsequently, the mice were euthanized and the tumors were isolated. […]

[2] = test system: H460 non-small cell lung cancer cell line; assay: WST colorimetric assay, viability and combination index in H460 cells; assay type: cell-based; conditions: 24, 48 and 72 hours
Protocol: Specifically, a total of 10^5 cells per well were seeded in a 6-well plate before treatment. […] After treatment, the cells were incubated with WST for 1 hour, and then the absorbance was measured at 450 nm using an ELISA reader (Molecular Devices, Palo Alto, CA, USA).
Fa indicates the inhibition rate.

H460 cells = assay: Annexin V/7-AAD apoptosis in H460 cells; assay type: cell-based; conditions: 24 hours
Protocol: as §1, §2

[3] = test system: gastric cancer cell line AGS; assay: Cell survival rate and combination index in AGS cells; assay type: cell-based
[4] = test system: MDA-MB-231 (TNBC, highly metastatic); assay: MTT assay, viability and combination index in MDA-MB-231 cells; assay type: cell-based; conditions: 24 hours, SH003 100, 300, 500 μg/mL, DTX 1, 10, 100, 1000 nM
Protocol: (§3) Thereafter, a 3-(4,5-Dimethylthiazol-2-yl)-2,5-diphenyltetrazolium bromide (MTT) reagent was treated in each cell, the cells were further incubated for 4 hours, and then a supernatant was removed and 100 μL of dimethyl sulfoxide (DMSO) was added. Finally, absorbance was measured at a wavelength of 590 nm and the absorbance value was compared with a control group which was not treated with any material.
Fa indicates the inhibition rate.

H460 tumor xenograft = H460 tumor xenograft mouse model; assay type: in vivo, Balb/c nude mice; conditions: H460 xenograft mice
Protocol: The effect of the combined administration of the mixed extract of the present invention and docetaxel was investigated in an animal model. All procedures of animal experimentation, including maintenance and euthanasia, were approved by Kyung Hee University Institutional Animal Care and Use Committee (KHU-IACUC-KHSASP-21-211). Five-week-old male Balb/c nude mice were purchased from Nara Biotech (Seoul, Republic of Korea) and acclimated to a 12-h light/dark cycle at 22-23° C. and 40-60% humidity. The mice were divided into four groups: control (n=3), SH003 administration (n=4), DTX administration (n=4), and combined administration (n=5). In order to establish a tumor xenograft mouse model, H460 cell suspension (1×10^7 cells) in 100 μL PBS was subcutaneously inoculated into the right flank of the mice. Thereafter, 200 μL of SH003 (557.569 mg/kg) was administered orally three times a week, and 50 μL DTX (15.277 mg/kg) was administered intravenously via the tail vein once a week for 3 weeks. Saline and DMSO were used as vehicles. The body weight was measured three times a week, and tumor volume was analyzed daily. On day 21, the mice were sacrificed using carbon dioxide and cervical dislocation was performed. Tumor tissues were isolated after euthanasia. […]

[5] = test system: BT-20 (TNBC, triple-negative breast cancer, non-invasive); assay: MTT assay, viability and combination index in BT-20 cells; assay type: cell-based; conditions: 24 hours, SH003 100, 300, 500 μg/mL, DTX 1, 10, 100, 1000 nM
Protocol: as §3
Fa indicates the inhibition rate.

CC(=O)O[C@@]12CO[C@@H]1C[C@H](O)[C@@]1(C)C(=O)[C@H](O)C3=C(C)[C@@H](OC(=O)[C@H](O)[C@@H](NC(=O)OC(C)(C)C)c4ccccc4)C[C@@](O)([C@@H](OC(=O)c4ccccc4)[C@H]21)C3(C)C [DTX, Docetaxel]
A549 cell growth [1]: inhibited A549 cell growth in a dose-dependent manner | apoptosis compared to the control group (in words) (A549 cells): did not significantly affect | body weight (BT-20 tumor xenograft): did not have an effect | H460 cell growth [2]: inhibited H460 cell growth in a dose-dependent manner | apoptosis compared to the control group (in words) (H460 cells): did not significantly affect | AGS cell survival rate [3]: decreased in a concentration-dependent manner | viability of MDA-MB-231 cells [4]: decreased the viability | body weight (H460 tumor xenograft): did not have an effect | viability of BT-20 cells [5]: decreased the viability
